Converted amounts (≈) assume the structure as drawn.

This passage reports MIC and ED50 results from ChEMBL document CHEMBL1126257, “Fluoronaphthyridines and -quinolones as antibacterial agents. 5. Synthesis and antimicrobial activity of chiral 1-tert-butyl-6-fluoro-7-substituted-naphthyridones” (J Med Chem, 1992).

The first experiment relates to Morganella morganii. The experiment can be described thus: In vitro antibacterial activity against Morganella morganii A 15153. It counts as functional. The conditions noted are these: Morganella morganii; read-out: MIC.
What is called MIC is the lowest concentration that inhibits growth of the organism. Consider `CC(C)(C)n1cc(C(=O)O)c(=O)c2cc(F)c(N3CC[C@H](N)C3)nc21`, for which the MIC turned out to be 0.13 mg/L (≈ 0.373 µM).

Turning to `C[C@@H]1CN(c2nc3c(cc2F)c(=O)c(C(=O)O)cn3C(C)(C)C)C[C@@H]1N`, the MIC amounted to 0.5 mg/L (≈ 1.38 µM).

`C[C@@H]1CN(c2nc3c(cc2F)c(=O)c(C(=O)O)cn3C(C)(C)C)C[C@H]1N`: the MIC was determined as 0.25 mg/L (≈ 0.69 µM).

For `C[C@H]1C[C@@H](N)CN1c1nc2c(cc1F)c(=O)c(C(=O)O)cn2C(C)(C)C`, the MIC was 0.5 mg/L (≈ 1.38 µM).

For a further experiment, the system named is Staphylococcus aureus. The experiment can be described thus: animal or person. The conditions noted are these: in Mus musculus, po, read-out: PD50.
Description: In vivo potency on systemic infection caused by Staphylococcus aureus A9537 after oral administration to mice expressed as median protective dose.
For the compound `C[C@@H]1CN(c2nc3c(cc2F)c(=O)c(C(=O)O)cn3C(C)(C)C)C[C@H]1N`, the ED50 amounted to 1.2 mg/kg.

The subject of another experiment is Klebsiella pneumoniae. Description: In vitro antibacterial activity against Klebsiella pneumoniae A 9664. The experiment is classed as functional. Particulars: Klebsiella pneumoniae; read-out: MIC.
On to `CC(C)(C)n1cc(C(=O)O)c(=O)c2cc(F)c(N3CC[C@H](N)C3)nc21`, for which the MIC is 0.03 mg/L (≈ 0.0861 µM).

In the case of `C[C@@H]1CN(c2nc3c(cc2F)c(=O)c(C(=O)O)cn3C(C)(C)C)C[C@@H]1N`, the MIC came out at 0.06 mg/L (≈ 0.166 µM).

Consider `C[C@@H]1CN(c2nc3c(cc2F)c(=O)c(C(=O)O)cn3C(C)(C)C)C[C@H]1N`, for which the MIC is 0.03 mg/L (≈ 0.0828 µM).

In the case of `C[C@H]1C[C@@H](N)CN1c1nc2c(cc1F)c(=O)c(C(=O)O)cn2C(C)(C)C`, the MIC stood at 0.06 mg/L (≈ 0.166 µM).

For another experiment, the system named is Enterococcus faecium. Description: In vitro antibacterial activity against Enterococcus faecium A 24885. The experiment is classed as functional. The conditions noted are these: Enterococcus faecium; read-out: MIC.
With `CC(C)(C)n1cc(C(=O)O)c(=O)c2cc(F)c(N3CC[C@H](N)C3)nc21`, the MIC was 0.5 mg/L (≈ 1.44 µM).

In the case of `C[C@@H]1CN(c2nc3c(cc2F)c(=O)c(C(=O)O)cn3C(C)(C)C)C[C@@H]1N`, the MIC stood at 4 mg/L (≈ 11 µM).

Consider `C[C@@H]1CN(c2nc3c(cc2F)c(=O)c(C(=O)O)cn3C(C)(C)C)C[C@H]1N`, for which the MIC turned out to be 0.5 mg/L (≈ 1.38 µM).

For `C[C@H]1C[C@@H](N)CN1c1nc2c(cc1F)c(=O)c(C(=O)O)cn2C(C)(C)C`, the MIC stood at 2 mg/L (≈ 5.52 µM).

The subject of another experiment is Pseudomonas aeruginosa. The experiment can be described thus: (§1) In vivo potency on systemic infection caused by after oral administration to mice expressed as median protective dose. The experiment is classed as functional. The conditions noted are these: read-out: PD50.
For `C[C@@H]1CN(c2nc3c(cc2F)c(=O)c(C(=O)O)cn3C(C)(C)C)C[C@H]1N`, the ED50 is 5.5 mg/kg.

The next experiment deals with Escherichia coli. The experiment is described as §1. The experiment is classed as functional. The conditions noted are these: read-out: PD50.
`C[C@@H]1CN(c2nc3c(cc2F)c(=O)c(C(=O)O)cn3C(C)(C)C)C[C@H]1N`: the ED50 is 2.1 mg/kg.

A further experiment has as its system Enterobacter cloacae. The experiment can be described thus: In vitro antibacterial activity against Enterobacter cloacae A 9656. It counts as functional. Particulars: Enterobacter cloacae; read-out: MIC.
For `CC(C)(C)n1cc(C(=O)O)c(=O)c2cc(F)c(N3CC[C@H](N)C3)nc21`, the MIC came to 0.13 mg/L (≈ 0.373 µM).

On to `C[C@@H]1CN(c2nc3c(cc2F)c(=O)c(C(=O)O)cn3C(C)(C)C)C[C@@H]1N`, for which the MIC turned out to be 0.03 mg/L (≈ 0.0828 µM).

Consider `C[C@@H]1CN(c2nc3c(cc2F)c(=O)c(C(=O)O)cn3C(C)(C)C)C[C@H]1N`, for which the MIC turned out to be 0.016 mg/L (≈ 0.0441 µM).

Regarding `C[C@H]1C[C@@H](N)CN1c1nc2c(cc1F)c(=O)c(C(=O)O)cn2C(C)(C)C`, the MIC was 0.03 mg/L (≈ 0.0828 µM).

In the next experiment the test system is Escherichia coli. Description: In vitro antibacterial activity against Escherichia coli A 15119. The experiment is classed as functional. Particulars: Escherichia coli; read-out: MIC.
In the case of `CC(C)(C)n1cc(C(=O)O)c(=O)c2cc(F)c(N3CC[C@H](N)C3)nc21`, the MIC was found to be 0.015 mg/L (≈ 0.0431 µM).

Turning to `C[C@@H]1CN(c2nc3c(cc2F)c(=O)c(C(=O)O)cn3C(C)(C)C)C[C@@H]1N`, the MIC was 0.13 mg/L (≈ 0.359 µM).

On to `C[C@@H]1CN(c2nc3c(cc2F)c(=O)c(C(=O)O)cn3C(C)(C)C)C[C@H]1N`, for which the MIC turned out to be 0.016 mg/L (≈ 0.0441 µM).

For the compound `C[C@H]1C[C@@H](N)CN1c1nc2c(cc1F)c(=O)c(C(=O)O)cn2C(C)(C)C`, the MIC came out at 0.03 mg/L (≈ 0.0828 µM).

The next experiment relates to Pseudomonas aeruginosa. Description: In vitro antibacterial activity against Pseudomonas aeruginosa A 9243. It counts as functional. The conditions noted are these: Pseudomonas aeruginosa; read-out: MIC.
In the case of `CC(C)(C)n1cc(C(=O)O)c(=O)c2cc(F)c(N3CC[C@H](N)C3)nc21`, the MIC turned out to be 0.13 mg/L (≈ 0.373 µM).

As for `C[C@@H]1CN(c2nc3c(cc2F)c(=O)c(C(=O)O)cn3C(C)(C)C)C[C@@H]1N`, the minimum inhibitory concentration (MIC) turned out to be 1 mg/L (≈ 2.76 µM).

For the compound `C[C@@H]1CN(c2nc3c(cc2F)c(=O)c(C(=O)O)cn3C(C)(C)C)C[C@H]1N`, the MIC turned out to be 0.5 mg/L (≈ 1.38 µM).

For `C[C@H]1C[C@@H](N)CN1c1nc2c(cc1F)c(=O)c(C(=O)O)cn2C(C)(C)C`, the MIC was determined as 2 mg/L (≈ 5.52 µM).

In a further experiment the test system is Klebsiella pneumoniae. Description: In vivo potency on systemic infection caused by after oral administration to mice expressed as median protective dose perorally. It counts as functional. The conditions noted are these: read-out: PD50.
As for `C[C@@H]1CN(c2nc3c(cc2F)c(=O)c(C(=O)O)cn3C(C)(C)C)C[C@H]1N`, the ED50 is 0.81 mg/kg.

In a further experiment the test system is Staphylococcus aureus. The experiment can be described thus: In vitro antibacterial activity against Staphylococcus aureus A9537. It counts as functional. Particulars: Staphylococcus aureus; read-out: MIC.
Regarding `CC(C)(C)n1cc(C(=O)O)c(=O)c2cc(F)c(N3CC[C@H](N)C3)nc21`, the MIC is 0.0005 mg/L (≈ 0.00144 µM).

With `C[C@@H]1CN(c2nc3c(cc2F)c(=O)c(C(=O)O)cn3C(C)(C)C)C[C@@H]1N`, the MIC amounted to 0.015 mg/L (≈ 0.0414 µM).

`C[C@@H]1CN(c2nc3c(cc2F)c(=O)c(C(=O)O)cn3C(C)(C)C)C[C@H]1N`: the MIC was found to be 0.002 mg/L (≈ 0.00552 µM).

`C[C@H]1C[C@@H](N)CN1c1nc2c(cc1F)c(=O)c(C(=O)O)cn2C(C)(C)C`: the MIC stood at 0.015 mg/L (≈ 0.0414 µM).

In another experiment the test system is Enterococcus faecalis. The experiment can be described thus: In vitro antibacterial activity against Enterococcus faecalis A9809. It counts as functional. The conditions noted are these: Enterococcus faecalis; read-out: MIC.
In the case of `CC(C)(C)n1cc(C(=O)O)c(=O)c2cc(F)c(N3CC[C@H](N)C3)nc21`, the MIC came to 0.03 mg/L (≈ 0.0861 µM).

Consider `C[C@@H]1CN(c2nc3c(cc2F)c(=O)c(C(=O)O)cn3C(C)(C)C)C[C@@H]1N`, for which the MIC came to 0.5 mg/L (≈ 1.38 µM).

With `C[C@@H]1CN(c2nc3c(cc2F)c(=O)c(C(=O)O)cn3C(C)(C)C)C[C@H]1N`, the MIC worked out at 0.06 mg/L (≈ 0.166 µM).

Take `C[C@H]1C[C@@H](N)CN1c1nc2c(cc1F)c(=O)c(C(=O)O)cn2C(C)(C)C`: the MIC was 0.25 mg/L (≈ 0.69 µM).

In the next experiment the test system is Klebsiella pneumoniae. The experiment can be described thus: In vivo potency on systemic infection caused by Klebsiella pneumoniae A 9664 after oral administration to mice expressed as median protective dose. It counts as functional. The conditions noted are these: read-out: PD50.
`CC(C)(C)n1cc(C(=O)O)c(=O)c2cc(F)c(N3CC[C@H](N)C3)nc21`: the ED50 stood at 3.5 mg/kg.

In another experiment the test system is Serratia marcescens. The experiment can be described thus: In vitro antibacterial activity against Serratia marcescens A 20019. The experiment is classed as functional. Particulars: Serratia marcescens; read-out: MIC.
For the compound `CC(C)(C)n1cc(C(=O)O)c(=O)c2cc(F)c(N3CC[C@H](N)C3)nc21`, the MIC was 0.13 mg/L (≈ 0.373 µM).

With `C[C@@H]1CN(c2nc3c(cc2F)c(=O)c(C(=O)O)cn3C(C)(C)C)C[C@@H]1N`, the MIC is 0.5 mg/L (≈ 1.38 µM).

Regarding `C[C@@H]1CN(c2nc3c(cc2F)c(=O)c(C(=O)O)cn3C(C)(C)C)C[C@H]1N`, the MIC is 0.25 mg/L (≈ 0.69 µM).

As to `C[C@H]1C[C@@H](N)CN1c1nc2c(cc1F)c(=O)c(C(=O)O)cn2C(C)(C)C`, the MIC is 0.5 mg/L (≈ 1.38 µM).

In another experiment the test system is Escherichia coli. Description: In vivo potency on systemic infection caused by Escherichia coli A 15119 after oral administration to mice expressed as median protective dose. The conditions noted are these: read-out: PD50. The experiment is classed as functional.
Take `CC(C)(C)n1cc(C(=O)O)c(=O)c2cc(F)c(N3CC[C@H](N)C3)nc21`: the ED50 stood at 1.2 mg/kg.
